The results in this text go back to ChEMBL document CHEMBL5465560, “Selectivity Literature for EUbOPEN Chemogenomic Library” (2024).

The target in assay [1] is Mitogen-activated protein kinase kinase kinase 21 (Homo sapiens) (UniProt Q5TCX8). The assay is described as follows: Selectivity interaction (LanthaScreen Eu Kinase Binding Assay) EUB0001632a MAP3K21. As to conditions: at 10 µM. (TR-FRET usually uses a lanthanide donor and a delayed reading to cut background.)
For assay [2], the target named is T1, Ephrin type-A receptor 8 (Homo sapiens) (UniProt P29322).
T1 sequence (whole entry): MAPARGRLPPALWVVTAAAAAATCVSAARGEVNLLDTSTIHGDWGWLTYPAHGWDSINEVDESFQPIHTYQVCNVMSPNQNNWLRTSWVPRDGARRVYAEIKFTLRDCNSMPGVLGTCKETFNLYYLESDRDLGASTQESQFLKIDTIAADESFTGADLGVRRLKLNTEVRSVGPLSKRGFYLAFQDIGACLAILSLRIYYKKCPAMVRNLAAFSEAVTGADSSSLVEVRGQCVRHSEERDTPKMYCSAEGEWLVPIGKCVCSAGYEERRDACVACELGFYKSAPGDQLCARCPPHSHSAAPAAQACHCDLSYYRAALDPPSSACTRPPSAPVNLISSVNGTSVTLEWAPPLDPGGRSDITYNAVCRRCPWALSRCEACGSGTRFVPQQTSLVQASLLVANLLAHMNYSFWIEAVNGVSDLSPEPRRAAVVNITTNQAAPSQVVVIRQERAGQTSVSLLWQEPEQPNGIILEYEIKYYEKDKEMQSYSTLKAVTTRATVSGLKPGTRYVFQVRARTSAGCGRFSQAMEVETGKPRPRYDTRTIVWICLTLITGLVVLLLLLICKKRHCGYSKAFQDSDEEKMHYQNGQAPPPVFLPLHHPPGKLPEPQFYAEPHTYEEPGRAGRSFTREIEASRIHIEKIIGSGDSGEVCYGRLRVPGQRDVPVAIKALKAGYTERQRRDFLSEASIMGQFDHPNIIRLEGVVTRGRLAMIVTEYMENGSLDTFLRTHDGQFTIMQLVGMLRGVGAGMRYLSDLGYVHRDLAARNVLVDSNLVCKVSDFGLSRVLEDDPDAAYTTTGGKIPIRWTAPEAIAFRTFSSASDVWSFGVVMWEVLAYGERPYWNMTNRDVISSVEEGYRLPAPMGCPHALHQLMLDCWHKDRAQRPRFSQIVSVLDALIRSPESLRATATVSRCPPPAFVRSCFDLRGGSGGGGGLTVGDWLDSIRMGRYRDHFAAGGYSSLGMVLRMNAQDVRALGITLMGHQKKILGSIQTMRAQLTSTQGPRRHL
In words: Selectivity interaction (KinomeScan (DiscoverX)) EUB0000666a EPHA8. As to conditions: at 10 µM.

Assay [3] concerns the target T2, Discoidin domain-containing receptor 2 (Homo sapiens) (UniProt Q16832).
T2 sequence (whole entry): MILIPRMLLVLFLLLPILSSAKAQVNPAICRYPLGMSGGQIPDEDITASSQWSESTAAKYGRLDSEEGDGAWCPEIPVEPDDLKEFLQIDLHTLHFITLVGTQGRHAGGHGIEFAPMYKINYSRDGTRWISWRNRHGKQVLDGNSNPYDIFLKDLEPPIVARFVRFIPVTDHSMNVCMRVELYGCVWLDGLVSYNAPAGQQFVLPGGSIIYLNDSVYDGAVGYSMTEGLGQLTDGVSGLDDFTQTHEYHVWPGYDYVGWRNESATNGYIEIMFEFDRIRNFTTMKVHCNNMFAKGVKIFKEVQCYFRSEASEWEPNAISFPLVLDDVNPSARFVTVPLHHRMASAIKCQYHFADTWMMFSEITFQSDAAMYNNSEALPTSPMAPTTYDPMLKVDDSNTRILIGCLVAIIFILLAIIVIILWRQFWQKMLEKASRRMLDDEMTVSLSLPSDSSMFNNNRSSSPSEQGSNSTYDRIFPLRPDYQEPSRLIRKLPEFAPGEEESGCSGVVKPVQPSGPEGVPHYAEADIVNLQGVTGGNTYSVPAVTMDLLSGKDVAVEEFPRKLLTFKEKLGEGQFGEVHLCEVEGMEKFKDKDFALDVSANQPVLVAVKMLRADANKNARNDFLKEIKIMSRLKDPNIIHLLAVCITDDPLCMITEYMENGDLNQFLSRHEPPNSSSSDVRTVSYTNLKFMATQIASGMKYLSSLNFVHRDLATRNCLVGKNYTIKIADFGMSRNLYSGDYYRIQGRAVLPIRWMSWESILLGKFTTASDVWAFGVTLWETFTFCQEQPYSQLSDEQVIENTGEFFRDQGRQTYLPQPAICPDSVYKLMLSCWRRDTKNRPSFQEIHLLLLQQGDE
In words: Selectivity interaction (KinomeScan (DiscoverX)) EUB0000666a DDR2. As to conditions: at 10 µM.

For assay [4], the target named is Serine/threonine-protein kinase PAK 3 (Homo sapiens) (UniProt O75914). Conditions: at 10 µM.
Assay [5] addresses Phosphatidylinositol 3-kinase catalytic subunit type 3 (Homo sapiens, UniProt Q8NEB9). The assay is described as follows: Selectivity interaction (ActivX KiNativ screen (kinase selectivity in THP-1 cell lysates)) EUB0000639a PIK3C3. In kind it is subcellular. Conditions: lysate, at 0.01 µM.
Assay [6] has as its system Tyrosine-protein kinase ABL1 (Homo sapiens), P00519 [F317L]. The assay is described as follows: Selectivity interaction (KinomeScan (DiscoverX)) EUB0000045b ABL1. As to conditions: at 1 µM.
In assay [7] the target is G protein-coupled receptor kinase 4 (Homo sapiens) (UniProt P32298). In words: Selectivity interaction (KinomeScan (DiscoverX)) EUB0001049a GRK4. As to conditions: at 1 µM.
Assay [8] deals with CDK6/Cyclin D (Homo sapiens) (UniProt P24385+P30281+Q00534+P30279). In words: Selectivity interaction (Upstate Kinase Profiler service (Millipore)) EUB0000056c CDK6. In kind it is protein-complex assay. Conditions: at 1 µM.
In assay [9] the target is Epidermal growth factor receptor (Homo sapiens, UniProt P00533). In words: Selectivity interaction (Upstate Kinase Profiler service (Millipore)) EUB0000056c EGFR. Conditions: at 1 µM.
Assay [10] has as its target Myosin-IIIa (Homo sapiens) (UniProt Q8NEV4). In words: Selectivity interaction (KinomeScan (DiscoverX)) EUB0000655a MYO3A. Conditions: at 10 µM.
For assay [11], the target named is Platelet-derived growth factor receptor beta (Homo sapiens, UniProt P09619). The assay is described as follows: Selectivity interaction (KinomeScan (DiscoverX)) EUB0000655a PDGFRB. As to conditions: at 10 µM.
Platelet-derived growth factor receptor beta, sequence (P09619 whole entry): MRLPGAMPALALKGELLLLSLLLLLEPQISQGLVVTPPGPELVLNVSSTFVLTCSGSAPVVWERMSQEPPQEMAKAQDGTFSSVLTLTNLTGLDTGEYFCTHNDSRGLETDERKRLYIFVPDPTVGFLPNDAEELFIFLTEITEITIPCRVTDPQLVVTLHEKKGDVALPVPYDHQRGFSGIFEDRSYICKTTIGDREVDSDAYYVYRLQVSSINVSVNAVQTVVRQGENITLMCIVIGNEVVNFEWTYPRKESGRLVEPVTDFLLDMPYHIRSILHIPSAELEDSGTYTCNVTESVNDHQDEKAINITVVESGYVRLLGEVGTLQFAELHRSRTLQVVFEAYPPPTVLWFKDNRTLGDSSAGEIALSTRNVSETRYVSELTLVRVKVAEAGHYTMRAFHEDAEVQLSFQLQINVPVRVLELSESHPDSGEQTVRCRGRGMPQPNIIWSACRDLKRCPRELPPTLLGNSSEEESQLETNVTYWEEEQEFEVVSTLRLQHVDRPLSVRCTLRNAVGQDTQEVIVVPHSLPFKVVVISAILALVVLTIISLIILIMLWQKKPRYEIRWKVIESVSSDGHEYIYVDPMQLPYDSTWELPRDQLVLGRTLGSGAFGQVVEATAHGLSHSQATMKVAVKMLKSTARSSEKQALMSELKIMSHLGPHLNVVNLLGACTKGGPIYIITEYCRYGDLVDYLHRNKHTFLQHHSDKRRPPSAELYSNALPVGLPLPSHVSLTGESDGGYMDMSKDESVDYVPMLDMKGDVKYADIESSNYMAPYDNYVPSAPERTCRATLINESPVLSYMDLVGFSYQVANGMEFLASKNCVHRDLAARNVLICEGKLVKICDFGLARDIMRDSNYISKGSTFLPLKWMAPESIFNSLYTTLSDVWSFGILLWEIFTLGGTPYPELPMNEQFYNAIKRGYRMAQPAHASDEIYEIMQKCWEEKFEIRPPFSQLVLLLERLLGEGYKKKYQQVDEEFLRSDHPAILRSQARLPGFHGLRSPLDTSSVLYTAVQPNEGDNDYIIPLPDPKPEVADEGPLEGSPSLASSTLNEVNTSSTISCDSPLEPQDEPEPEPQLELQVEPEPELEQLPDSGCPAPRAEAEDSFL

Tyrosine-protein kinase ABL1 (Homo sapiens), P00519 [F317L], sequence (P00519 whole entry F317L): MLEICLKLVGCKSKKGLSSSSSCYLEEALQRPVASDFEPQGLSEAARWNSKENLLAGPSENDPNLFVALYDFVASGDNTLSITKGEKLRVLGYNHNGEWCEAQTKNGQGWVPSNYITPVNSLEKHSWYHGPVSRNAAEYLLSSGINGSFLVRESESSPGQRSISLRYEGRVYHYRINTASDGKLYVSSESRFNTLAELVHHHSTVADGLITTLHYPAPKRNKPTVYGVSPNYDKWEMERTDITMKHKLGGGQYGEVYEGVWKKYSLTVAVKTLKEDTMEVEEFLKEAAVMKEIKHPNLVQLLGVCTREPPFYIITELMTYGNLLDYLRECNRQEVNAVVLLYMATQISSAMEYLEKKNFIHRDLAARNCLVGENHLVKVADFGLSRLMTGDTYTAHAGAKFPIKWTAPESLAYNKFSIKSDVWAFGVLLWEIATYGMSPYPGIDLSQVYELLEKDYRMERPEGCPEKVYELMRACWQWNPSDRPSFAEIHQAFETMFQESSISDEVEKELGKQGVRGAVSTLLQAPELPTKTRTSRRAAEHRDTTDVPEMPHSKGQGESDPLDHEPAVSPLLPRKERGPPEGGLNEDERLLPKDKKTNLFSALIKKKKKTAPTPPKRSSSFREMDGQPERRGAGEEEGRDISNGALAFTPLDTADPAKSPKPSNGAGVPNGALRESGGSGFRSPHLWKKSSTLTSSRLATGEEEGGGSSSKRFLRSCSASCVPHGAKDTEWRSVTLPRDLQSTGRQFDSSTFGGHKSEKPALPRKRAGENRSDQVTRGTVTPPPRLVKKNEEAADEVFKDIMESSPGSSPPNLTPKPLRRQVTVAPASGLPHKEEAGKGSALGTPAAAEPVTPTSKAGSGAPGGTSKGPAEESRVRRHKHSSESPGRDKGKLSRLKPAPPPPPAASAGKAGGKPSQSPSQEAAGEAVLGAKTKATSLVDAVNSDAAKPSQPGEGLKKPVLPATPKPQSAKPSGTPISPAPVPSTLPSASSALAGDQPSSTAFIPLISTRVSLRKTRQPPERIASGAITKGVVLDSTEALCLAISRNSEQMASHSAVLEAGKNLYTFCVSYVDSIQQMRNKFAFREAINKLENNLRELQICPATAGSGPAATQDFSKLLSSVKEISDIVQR
Mitogen-activated protein kinase kinase kinase 21 (Homo sapiens), sequence (Q5TCX8 whole entry): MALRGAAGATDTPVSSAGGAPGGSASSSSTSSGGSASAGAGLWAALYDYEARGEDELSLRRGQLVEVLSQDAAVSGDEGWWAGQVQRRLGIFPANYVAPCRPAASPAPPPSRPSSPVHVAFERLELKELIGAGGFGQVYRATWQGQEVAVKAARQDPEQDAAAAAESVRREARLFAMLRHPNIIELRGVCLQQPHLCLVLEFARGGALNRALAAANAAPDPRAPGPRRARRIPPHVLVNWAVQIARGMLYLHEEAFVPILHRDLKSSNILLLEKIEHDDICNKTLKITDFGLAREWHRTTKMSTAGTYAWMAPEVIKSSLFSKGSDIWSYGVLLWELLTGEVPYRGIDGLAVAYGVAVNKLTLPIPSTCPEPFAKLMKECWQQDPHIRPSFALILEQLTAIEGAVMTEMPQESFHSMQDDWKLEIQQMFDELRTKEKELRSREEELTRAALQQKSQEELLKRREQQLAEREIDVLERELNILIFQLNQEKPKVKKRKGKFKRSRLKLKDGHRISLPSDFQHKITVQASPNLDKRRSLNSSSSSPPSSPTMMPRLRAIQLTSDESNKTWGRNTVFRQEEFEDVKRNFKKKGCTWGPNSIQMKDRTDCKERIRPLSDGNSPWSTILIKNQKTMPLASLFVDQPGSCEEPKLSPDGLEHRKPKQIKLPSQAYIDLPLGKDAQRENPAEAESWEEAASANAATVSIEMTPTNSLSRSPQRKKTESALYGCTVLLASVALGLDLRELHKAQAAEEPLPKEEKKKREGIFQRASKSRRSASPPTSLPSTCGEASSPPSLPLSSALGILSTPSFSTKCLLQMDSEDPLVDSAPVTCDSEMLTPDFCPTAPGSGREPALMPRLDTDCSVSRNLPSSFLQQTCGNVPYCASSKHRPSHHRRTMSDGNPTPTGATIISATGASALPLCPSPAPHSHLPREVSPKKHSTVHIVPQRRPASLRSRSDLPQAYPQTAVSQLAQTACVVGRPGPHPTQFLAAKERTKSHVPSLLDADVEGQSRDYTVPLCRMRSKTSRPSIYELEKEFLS
Phosphatidylinositol 3-kinase catalytic subunit type 3, sequence (Q8NEB9 whole entry): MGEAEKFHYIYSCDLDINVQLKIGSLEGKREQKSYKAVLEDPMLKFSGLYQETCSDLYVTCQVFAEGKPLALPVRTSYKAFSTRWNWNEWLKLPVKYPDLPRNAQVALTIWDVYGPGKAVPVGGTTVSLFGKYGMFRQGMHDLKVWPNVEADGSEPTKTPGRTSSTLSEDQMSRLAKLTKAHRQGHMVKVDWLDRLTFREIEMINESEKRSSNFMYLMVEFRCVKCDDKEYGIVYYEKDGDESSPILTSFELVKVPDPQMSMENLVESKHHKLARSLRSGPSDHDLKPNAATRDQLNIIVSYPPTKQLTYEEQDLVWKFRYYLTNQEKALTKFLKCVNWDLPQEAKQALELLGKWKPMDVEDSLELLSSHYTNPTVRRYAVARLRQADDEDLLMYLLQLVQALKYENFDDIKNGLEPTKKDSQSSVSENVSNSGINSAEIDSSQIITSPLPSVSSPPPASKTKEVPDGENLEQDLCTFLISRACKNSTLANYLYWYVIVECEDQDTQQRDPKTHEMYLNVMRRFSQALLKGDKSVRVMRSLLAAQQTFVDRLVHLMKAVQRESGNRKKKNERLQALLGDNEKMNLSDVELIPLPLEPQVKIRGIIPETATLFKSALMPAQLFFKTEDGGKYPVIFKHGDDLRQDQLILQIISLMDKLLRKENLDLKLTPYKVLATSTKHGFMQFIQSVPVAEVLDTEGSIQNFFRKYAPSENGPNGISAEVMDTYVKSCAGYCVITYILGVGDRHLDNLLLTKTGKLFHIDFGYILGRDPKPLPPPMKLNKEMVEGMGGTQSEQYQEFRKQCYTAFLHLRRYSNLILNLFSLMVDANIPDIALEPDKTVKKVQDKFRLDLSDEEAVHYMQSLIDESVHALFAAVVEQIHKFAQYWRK
G protein-coupled receptor kinase 4 (Homo sapiens), sequence (P32298 whole entry, looked up): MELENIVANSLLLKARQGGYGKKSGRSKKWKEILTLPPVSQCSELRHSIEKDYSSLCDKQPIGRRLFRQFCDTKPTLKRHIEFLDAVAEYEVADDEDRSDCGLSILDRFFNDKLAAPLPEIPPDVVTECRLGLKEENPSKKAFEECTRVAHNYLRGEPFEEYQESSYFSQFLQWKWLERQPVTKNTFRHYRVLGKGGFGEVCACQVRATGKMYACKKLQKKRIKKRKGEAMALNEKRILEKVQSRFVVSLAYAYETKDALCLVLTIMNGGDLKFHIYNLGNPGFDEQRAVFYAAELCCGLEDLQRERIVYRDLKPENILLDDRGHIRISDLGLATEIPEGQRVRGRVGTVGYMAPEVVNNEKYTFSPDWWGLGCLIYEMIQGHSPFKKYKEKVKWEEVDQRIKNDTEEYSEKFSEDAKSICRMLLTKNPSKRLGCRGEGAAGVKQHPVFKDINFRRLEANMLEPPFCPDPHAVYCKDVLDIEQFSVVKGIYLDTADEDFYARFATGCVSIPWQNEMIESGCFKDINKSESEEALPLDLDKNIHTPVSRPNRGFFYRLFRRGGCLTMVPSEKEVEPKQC

`Cn1cc(-n2cnc3c(NCc4nc5cc(Cl)c(Cl)cc5[nH]4)nc(N4CCOCC4)nc32)cn1`: the % of inhibition in assay [1] was -59.8%.

As for `O=C(NOC[C@H](O)CO)c1ccc(F)c(F)c1Nc1ccc(I)cc1F`, the % of control in [2] stood at 94%; in [3], 100%.

With `Cc1cc([C@@H](C)Nc2ccccc2C(=O)O)c2nc(N3CCOCC3)cc(=O)n2c1` [AZD-6482], the % of control in [4] is 98%.

Turning to `CC[C@@H]1[C@H](F)C(=O)N[C@@H]1COc1nccc2cc(C(N)=O)c(OC)cc12` [ZIMLOVISERTIB], the % of inhibition in [5] is -21%. For the compound `C=CC(=O)Nc1cc(-n2c(=O)ccc3cnc4ccc(-c5ccc(NS(C)(=O)=O)cc5)cc4c32)ccc1C`, the % of control in assay [6] is 100%. As to `COc1cc(Nc2nc(C)cc(-c3cnn4nc(OC)ccc34)n2)cc(C(F)(F)F)c1`, the % of control in assay [7] amounted to 85%. Regarding `Cc1ccc(-c2ccc3c(ccc4sc5c(c43)NC[C@@H](C)NC5=O)n2)cn1`, the % of inhibition in [8] was 5%; in assay [9], -2%. Regarding `CN(C)CCOc1ccc(-c2nc(-c3ccncc3)c(-c3ccc4c(c3)CC/C4=N\O)[nH]2)cc1`, the % of control in [10] was determined as 94%; in assay [11], 63%.
